Tested on: Arabidopsis seedlings
Assay: Hormone-independent shoot regeneration of Arabidopsis seedlings after chemical induction of the transformed constructs
Assay type: in vivo, Arabidopsis thaliana
Experimental: For plant transformation, vector SHOOT REGENERATION was introduced into A. tumefaciens (strain C58C1.pMP90) by electroporation. Transformant A. tumefaciens were used to transform A. thaliana plants of the Col-0 ecotype by the floral dip method (Clough, 1998).
Seeds were surface sterilised by chlorin gas by the vapor sterilisation method (Lindsey, 2017). After sterilisation, the seeds were suspended in a 0.1% agarose solution, before being stratified at 4° C. in darkness for 48 hours. Subsequently, the seeds were plated on germination medium under sterile conditions. The seeds were plated on a fine nylon mesh (100 μm), which allowed for the contact with the medium without allowing seedlings to penetrate the mesh. The plates with the seedlings were sealed with surgical tape (3M, Micropore) to prevent desiccation. The plates were placed in upright position in a growth chamber (22° C., 120-150 μmol/m^2s with 16 h light/8 h dark photoperiodlight). The plates were left to grow in these circumstances for 5 days.
After 5 days of growth, the seedlings were transplanted under sterile conditions by transporting the mesh on which they were growing from the germination medium to the induction medium. The plates with the seedlings were sealed with surgical tape (3M, Micropore) to prevent desiccation. The plates were placed back in the growth chamber in upright position. The plates were left to grow in this condition for 14 days. Shoots started appearing in the second week of induction.
Plants transformed with the SHOOT REGENERATION vector (XVE-transactivated AmiRBR and AtWIND1; GVG-transactivated AtSHR, AtSCR, AtPLT1, AtPLT4, AtPLT5 and AtWOX5) were grown on medium containing 10 μM 17β-estradiol (EST: activation of XVE) and/or 10 μM dexamethasone (DEX: activation of GVG).
Plants transformed with the SHOOT REGENERATION-2 vector (XVE-transactivated AtWIND1; GVG-transactivated AtPLT1 and AtWOX5) were grown on medium containing 10 μM 17β-estradiol (EST: activation of XVE) and/or 10 μM dexamethasone (DEX: activation of GVG).

[1] = inducer on wild-type (non-transformed) seedlings, percentage of total number of seedlings tested

| SMILES | green callus (inducer on wild-type (non-transformed) seedlings, percentage of the numbers with callus formation) [%] | shoot regeneration (inducer on wild-type (non-transformed) seedlings, percentage of the numbers with green callus formation) [%] | callus [1] [%] | green callus [1] [%] | root growth arrest [1] [%] | shoot regeneration [1] [%] | root growth arrest, callus formation or shoot regeneration (roots of non-transformed Arabidopsis, induced with 10 μM, result in words) |
| --- | --- | --- | --- | --- | --- | --- | --- |
| C[C@@H]1C[C@H]2[C@@H]3CCC4=CC(=O)C=C[C@]4(C)[C@@]3(F)[C@@H](O)C[C@]2(C)[C@@]1(O)C(=O)CO [DEX, dexamethasone] | 0 | 0 | 0 | 0 | 0 | 0 | – |
| C[C@]12CC[C@@H]3c4ccc(O)cc4CC[C@H]3[C@@H]1CC[C@@H]2O [estradiol, 17β-estradiol] | – | – | – | – | – | – | never showed any root growth arrest, callus formation or shoot regeneration |
